Our source for the DC50, Emax and GI50 values is patent US20260297060A1, “COMPOUNDS FOR THE DEGRADATION OF MUTANT BRAF” (C4 THERAPEUTICS, INC., priority 2023, published 2026).

Experiment [1] deals with T1, BRAF V600E (Homo sapiens, UniProt P15056+Q96SW2, V600E).
T1 construct: knock-in of the HiBiT tag to the endogenous BRAF V600E locus; host or cells: A375.10 (A375 clonal line, CRISPR HiBiT knock-in at the endogenous BRAF V600E locus)
Put plainly: BRAF V600E HiBiT Degradation Assay. It counts as cell-based. The method, boiled down: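 Endogenous HiBiT knock-in on BRAF V600E in A375 cells (clone A375.10); 11-point half-log series, top 10 μM, 2, 6 or 24 h at 37° C. Lytic HiBiT luminescence, background-subtracted, normalized to DMSO; 4-parameter fit gives DC50, Emax (residual protein) and IP (inflection point).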
In general terms: HiBiT is a short tag that completes a luciferase, so light tracks the accessible tagged protein.

The test system of experiment [2] is A375-NRAS^Q61K cells. Put plainly: CTGlo Cell Viability Assay, A375-NRAS^Q61K (A375.11) cells, 96 hours. It counts as cell-based, human. The following applies: Homo sapiens, A375.11 (A375-NRAS^Q61K) cells; for Emax: lowest % viability achieved. An outline of the steps:
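Viability as CellTiter-Glo ATP luminescence after 96 h compound exposure at 37 °C; A375.11 (BRAF V600E/NRAS Q61K) cells at 250/well, top final concentration 10 μM in half-log steps. Signal was background-corrected and set relative to DMSO controls. A 4-parameter logistic fit gave GI50 (50% crossing) and Emax.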

Setting [3] is: A375.10 cells, BRAF V600E, 2 hours, inflection point, read-out: HiBiT-Degradation A375.10 BRAF 2 hours IP.
Setting [4] is: A375.10 cells, BRAF V600E, 2 hours, read-out: HiBiT-Degradation A375.10 BRAF 2 hours DC50.
The mark [5] stands for this setting: A375.10 cells, BRAF V600E, 2 hours, residual protein remaining, read-out: HiBiT-Degradation A375.10 BRAF 2 hours Emax.

Each structure is given as a SMILES string. Where two headings read alike, the source gives them in different places.

As a reminder, the GI50 is the concentration giving 50% growth inhibition. High values mean less potent growth inhibition, low ones more potent growth inhibition.

T1 sequence (P15056 whole entry V600E): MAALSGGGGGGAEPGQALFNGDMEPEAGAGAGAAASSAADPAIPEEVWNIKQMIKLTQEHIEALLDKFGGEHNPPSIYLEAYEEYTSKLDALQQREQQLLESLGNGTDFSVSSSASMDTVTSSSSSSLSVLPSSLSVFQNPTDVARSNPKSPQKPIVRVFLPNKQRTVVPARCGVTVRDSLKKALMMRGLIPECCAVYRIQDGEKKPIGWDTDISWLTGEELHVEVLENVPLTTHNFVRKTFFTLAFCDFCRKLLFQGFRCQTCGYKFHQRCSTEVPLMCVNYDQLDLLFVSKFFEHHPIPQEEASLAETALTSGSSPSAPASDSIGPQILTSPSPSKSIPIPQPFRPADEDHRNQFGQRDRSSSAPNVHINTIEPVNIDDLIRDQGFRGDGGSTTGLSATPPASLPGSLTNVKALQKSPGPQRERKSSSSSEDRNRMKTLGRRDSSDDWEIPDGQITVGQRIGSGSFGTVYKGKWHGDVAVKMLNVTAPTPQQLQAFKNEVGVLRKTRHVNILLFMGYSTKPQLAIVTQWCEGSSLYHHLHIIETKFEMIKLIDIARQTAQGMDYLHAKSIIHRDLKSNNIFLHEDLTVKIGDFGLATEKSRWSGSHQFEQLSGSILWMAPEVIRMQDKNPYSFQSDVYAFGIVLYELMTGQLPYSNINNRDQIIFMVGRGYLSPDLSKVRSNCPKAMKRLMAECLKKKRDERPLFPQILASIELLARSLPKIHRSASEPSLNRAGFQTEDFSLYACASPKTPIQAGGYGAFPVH
T1 sequence (Q96SW2 whole entry): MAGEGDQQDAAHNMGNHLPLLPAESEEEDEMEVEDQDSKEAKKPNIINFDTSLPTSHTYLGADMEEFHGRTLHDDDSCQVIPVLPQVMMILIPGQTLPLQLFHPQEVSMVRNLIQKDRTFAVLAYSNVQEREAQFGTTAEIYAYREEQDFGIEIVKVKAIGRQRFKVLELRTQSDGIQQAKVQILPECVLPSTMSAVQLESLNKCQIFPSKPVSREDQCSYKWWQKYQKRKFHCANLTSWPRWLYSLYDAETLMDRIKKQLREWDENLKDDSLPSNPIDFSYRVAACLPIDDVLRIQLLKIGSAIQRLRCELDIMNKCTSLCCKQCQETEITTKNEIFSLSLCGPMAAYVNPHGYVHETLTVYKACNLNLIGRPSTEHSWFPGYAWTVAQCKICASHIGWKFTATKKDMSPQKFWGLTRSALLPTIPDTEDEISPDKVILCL
T1 sequence (Q16531 whole entry partner): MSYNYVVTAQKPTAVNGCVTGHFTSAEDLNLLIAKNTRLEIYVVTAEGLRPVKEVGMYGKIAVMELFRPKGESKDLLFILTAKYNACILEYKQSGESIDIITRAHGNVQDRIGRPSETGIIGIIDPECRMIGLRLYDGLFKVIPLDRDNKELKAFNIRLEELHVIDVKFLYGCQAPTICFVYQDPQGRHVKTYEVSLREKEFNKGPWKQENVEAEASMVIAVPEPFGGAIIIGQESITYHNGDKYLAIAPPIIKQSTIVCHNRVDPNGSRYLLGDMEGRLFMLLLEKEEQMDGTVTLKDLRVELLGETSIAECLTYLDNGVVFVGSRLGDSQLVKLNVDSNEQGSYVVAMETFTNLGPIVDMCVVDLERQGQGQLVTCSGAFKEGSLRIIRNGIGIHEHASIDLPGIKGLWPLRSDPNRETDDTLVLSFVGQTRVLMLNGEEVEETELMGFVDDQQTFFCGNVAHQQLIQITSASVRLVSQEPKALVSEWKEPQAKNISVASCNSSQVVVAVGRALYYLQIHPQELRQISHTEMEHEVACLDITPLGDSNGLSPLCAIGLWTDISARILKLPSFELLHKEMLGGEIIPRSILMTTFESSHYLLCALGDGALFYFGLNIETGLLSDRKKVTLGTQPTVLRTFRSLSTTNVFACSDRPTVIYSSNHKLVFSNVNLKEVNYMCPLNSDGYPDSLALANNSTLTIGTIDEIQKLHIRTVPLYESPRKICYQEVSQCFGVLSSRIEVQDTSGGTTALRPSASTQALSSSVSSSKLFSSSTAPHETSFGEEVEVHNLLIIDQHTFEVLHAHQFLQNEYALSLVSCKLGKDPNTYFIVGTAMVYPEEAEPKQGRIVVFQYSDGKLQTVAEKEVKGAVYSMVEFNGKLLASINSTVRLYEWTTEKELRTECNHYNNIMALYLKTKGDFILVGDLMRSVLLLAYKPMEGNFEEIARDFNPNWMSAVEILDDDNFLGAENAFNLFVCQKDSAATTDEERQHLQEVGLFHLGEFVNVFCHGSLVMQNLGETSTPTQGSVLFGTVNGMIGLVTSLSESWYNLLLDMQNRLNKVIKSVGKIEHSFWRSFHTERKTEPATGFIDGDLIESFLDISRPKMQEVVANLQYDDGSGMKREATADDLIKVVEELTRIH

Consider `CCN(C)S(=O)(=O)Nc1ccc(F)c(Oc2ccc3ncn([C@H]4COC5(CCN(C6C7COCC6CC(c6ccc(NC8CCC(=O)NC8=O)cc6F)C7)CC5)C4)c(=O)c3c2)c1C#N` (stereo partly drawn) [Compound 194, (3R)-3-[6-[2-cyano-3-[[ethyl(methyl)sulfamoyl]amino]-6-fluoro-phenoxy]-4-oxo-quinazolin-3-yl]-8-[7-[4-[(2,6-dioxo-3-piperidyl)amino]-2-fluoro-phenyl]-3-oxabicyclo[3.3.1]nonan-9-yl]-1-oxa-8-azaspiro[4.5]decane], for which the figures for the DC50 in experiment [1] (setting [3]) and in experiment [1] (setting [4]) were less than 1000 nM and more than 10000 nM, respectively. Moreover, the Emax in experiment [1] (read-out: HiBiT-Degradation A375.10 BRAF 2 hours Emax) and in experiment [2] was 50 to 90% throughout. Besides, in experiment [2], the GI50 was more than 10000 nM.

In the case of `CN(CCO)S(=O)(=O)Nc1ccc(F)c(Oc2ccc3ncn(C4CC5(CCN(C6CC7(C6)CN(c6cc8c(cc6F)c(N6CCC(=O)NC6=O)nn8C)C7)CC5)C4)c(=O)c3c2)c1F` (stereo not drawn) [Compound 197, 6-[2,6-difluoro-3-[[2-hydroxyethyl(methyl)sulfamoyl]amino]phenoxy]-3-[7-[2-[3-(2,4-dioxohexahydropyrimidin-1-yl)-5-fluoro-1-methyl-indazol-6-yl]-2-azaspiro[3.3]heptan-6-yl]-7-azaspiro[3.5]nonan-2-yl]-4-oxo-quinazoline], the values for the DC50 in experiment [1] (setting [3]) and in experiment [1] (setting [4]) were less than 1000 nM and 1000 to 10000 nM, respectively. The Emax in experiment [1] (setting [5]) and in experiment [2] (96 h) was 50 to 90% in each case. The GI50 in experiment [2] (96 h) fell in the range of 1000 to 10000 nM.

Consider `CCN(C)S(=O)(=O)Nc1ccc(F)c(C(=O)c2ccc3ncn([C@H]4COC5(CCN(C6CCC(c7cc8c(cc7F)c(N7CCC(=O)NC7=O)nn8C)CC6)CC5)C4)c(=O)c3c2)c1F` (stereo partly drawn) [Compound 208, (3R)-8-[4-[3-(2,4-dioxohexahydropyrimidin-1-yl)-5-fluoro-1-methyl-indazol-6-yl]cyclohexyl]-3-[6-[3-[[ethyl(methyl)sulfamoyl]amino]-2,6-difluoro-benzoyl]-4-oxo-quinazolin-3-yl]-1-oxa-8-azaspiro[4.5]decane], for which the DC50 in experiment [1] (setting [3]) and in experiment [1] (setting [4]) was less than 1000 nM throughout. Besides, the Emax in experiment [1] (read-out: HiBiT-Degradation A375.10 BRAF 2 hours Emax, A375.10 cells, BRAF V600E, 2 hours, residual protein remaining) is less than 50%; in experiment [2] (96 h) it was 50 to 90%. The 50% growth inhibitory concentration (GI50) in experiment [2] (96 h) is less than 1000 nM.

Turning to `CCN(C)S(=O)(=O)Nc1ccc(F)c(Oc2ccc3ncn(C4CC5(CCN([C@H]6C[C@@H](c7cc8c(cc7F)c(N7CCC(=O)NC7=O)nn8C)C6)CC5)C4)c(=O)c3c2)c1C#N` [Compound 209, 6-[2-cyano-3-[[ethyl(methyl)sulfamoyl]amino]-6-fluoro-phenoxy]-3-[7-[3-[3-(2,4-dioxohexahydropyrimidin-1-yl)-5-fluoro-1-methyl-indazol-6-yl]cyclobutyl]-7-azaspiro[3.5]nonan-2-yl]-4-oxo-quinazoline], the DC50 in experiment [1] (setting [3]) and in experiment [1] (setting [4]) was less than 1000 nM each time. Moreover, the Emax is 50 to 90% in experiment [1] (setting [5]) and less than 50% in experiment [2] (96 h). The same molecule yielded a GI50 in experiment [2] (96 h) of 1000 to 10000 nM.

On to `CCN(C)S(=O)(=O)Nc1ccc(F)c(Oc2ccc3ncn(C4CC5(CCN(C6COC7(CCN(c8cc9c(cc8F)c(N8CCC(=O)NC8=O)nn9C)CC7)C6)CC5)C4)c(=O)c3c2)c1C#N` (stereo not drawn) [Compound 216], for which the DC50 in experiment [1] (setting [3]) and in experiment [1] (setting [4]) was less than 1000 nM in each case. The Emax is less than 50% in experiment [1] (setting [5]) and 50 to 90% in experiment [2] (96 h). This molecule displayed a concentration for 50% growth inhibition (GI50) in experiment [2] (96 h) of less than 1000 nM.

Turning to `CCN(C)S(=O)(=O)Nc1ccc(F)c(Oc2ccc3ncn(C4CC5(CC(N6CC[C@H](c7cc8c(cc7F)c(N7CCC(=O)NC7=O)nn8C)C(F)(F)C6)C5)C4)c(=O)c3c2)c1C#N` (stereo partly drawn) [Compound 217, 6-[2-cyano-3-[[ethyl(methyl)sulfamoyl]amino]-6-fluoro-phenoxy]-3-[2-[(4R)-4-[3-(2,4-dioxohexahydropyrimidin-1-yl)-5-fluoro-1-methyl-indazol-6-yl]-3,3-difluoro-1-piperidyl]spiro[3.3]heptan-6-yl]-4-oxo-quinazoline], the DC50 in experiment [1] (setting [3]) and in experiment [1] (setting [4]) was less than 1000 nM in each case. In addition, the values for the Emax in experiment [1] (setting [5]) and in experiment [2] (96 h) were less than 50% and 50 to 90%, respectively. In experiment [2] (96 h), this molecule yielded a GI50 of 1000 to 10000 nM.

For the molecule `CCN(C)S(=O)(=O)Nc1ccc(F)c(Oc2ccc3ncn(C4CC5(CCN(C6CCC7(CC6)CN(c6cc8c(cc6F)c(N6CCC(=O)NC6=O)nn8C)C7)CC5)C4)c(=O)c3c2)c1C#N` (stereo not drawn) [Compound 220, 6-[2-cyano-3-[[ethyl(methyl)sulfamoyl]amino]-6-fluoro-phenoxy]-3-[7-[2-[3-(2,4-dioxohexahydropyrimidin-1-yl)-5-fluoro-1-methyl-indazol-6-yl]-2-azaspiro[3.5]nonan-7-yl]-7-azaspiro[3.5]nonan-2-yl]-4-oxo-quinazoline], the DC50 in experiment [1] (setting [3]) was less than 1000 nM; in experiment [1] (setting [4]), more than 10000 nM. In addition, the Emax in experiment [1] (setting [5]) and in experiment [2] (96 h) was 50 to 90% each time. Further, in experiment [2] (96 h), the 50% growth inhibitory concentration (GI50) was more than 10000 nM.

Regarding `CCN(C)S(=O)(=O)Nc1ccc(F)c(Oc2ccc3ncc(OCC4CCN(C5CC6(C5)CN(c5cc7c(cc5F)c(N5CCC(=O)NC5=O)nn7C)C6)CC4)nc3c2)c1C#N` [Compound 223, 7-[2-cyano-3-[[ethyl(methyl)sulfamoyl]amino]-6-fluoro-phenoxy]-2-[[1-[2-[3-(2,4-dioxohexahydropyrimidin-1-yl)-5-fluoro-1-methyl-indazol-6-yl]-2-azaspiro[3.3]heptan-6-yl]-4-piperidyl]methoxy]quinoxaline], the DC50 in experiment [1] (setting [3]) and in experiment [1] (setting [4]) was less than 1000 nM each time. Besides, the figures for the Emax in experiment [1] (setting [5]) and in experiment [2] (96 h) were less than 50% and 50 to 90%, respectively. In experiment [2] (96 h), this molecule gave a concentration for 50% growth inhibition (GI50) of 1000 to 10000 nM.

For `CCN(C)S(=O)(=O)Nc1ccc(F)c(Oc2ccc3ncn(C4CC5(CCC(N6CC[C@H](c7cc8c(cc7F)c(N7CCC(=O)NC7=O)nn8C)C(F)(F)C6)CC5)C4)c(=O)c3c2)c1C#N` (stereo partly drawn) [Compound 224, 6-[2-cyano-3-[[ethyl(methyl)sulfamoyl]amino]-6-fluoro-phenoxy]-3-[7-[(4R)-4-[3-(2,4-dioxohexahydropyrimidin-1-yl)-5-fluoro-1-methyl-indazol-6-yl]-3,3-difluoro-1-piperidyl]spiro[3.5]nonan-2-yl]-4-oxo-quinazoline], the DC50 in experiment [1] (setting [3]) and in experiment [1] (setting [4]) was less than 1000 nM each time. The Emax in experiment [1] (setting [5]) is less than 50%; in experiment [2] (96 h) it was 50 to 90%. This molecule also had a GI50 in experiment [2] (96 h) of less than 1000 nM.

With `CCN(C)S(=O)(=O)Nc1ccc(F)c(Oc2ccc3ncn(C4CC5(CCC(N6CC[C@@H](c7cc8c(cc7F)c(N7CCC(=O)NC7=O)nn8C)C(F)(F)C6)CC5)C4)c(=O)c3c2)c1C#N` (stereo partly drawn) [Compound 225, 6-[2-cyano-3-[[ethyl(methyl)sulfamoyl]amino]-6-fluoro-phenoxy]-3-[7-[(4S)-4-[3-(2,4-dioxohexahydropyrimidin-1-yl)-5-fluoro-1-methyl-indazol-6-yl]-3,3-difluoro-1-piperidyl]spiro[3.5]nonan-2-yl]-4-oxo-quinazoline], the DC50 in experiment [1] (setting [3]) and in experiment [1] (setting [4]) was less than 1000 nM throughout. The Emax in experiment [1] (setting [5]) and in experiment [2] (96 h) was less than 50% in each case. The molecule also yielded a GI50 in experiment [2] (96 h) of less than 1000 nM.

Turning to `CCN(C)S(=O)(=O)Nc1ccc(F)c(Oc2ccc3ncn(C4CC5(CCN(CC6(O)CCN(c7cc8c(cc7F)c(N7CCC(=O)NC7=O)nn8C)CC6)CC5)C4)c(=O)c3c2)c1C#N` [Compound 226, 6-[2-cyano-3-[[ethyl(methyl)sulfamoyl]amino]-6-fluoro-phenoxy]-3-[7-[[1-[3-(2,4-dioxohexahydropyrimidin-1-yl)-5-fluoro-1-methyl-indazol-6-yl]-4-hydroxy-4-piperidyl]methyl]-7-azaspiro[3.5]nonan-2-yl]-4-oxo-quinazoline], the DC50 in experiment [1] (setting [3]) was less than 1000 nM; in experiment [1] (setting [4]) it was less than 1000 nM; in experiment [1] (A375.10 cells, HiBiT, BRAF V600E, 24 hours, read-out: HiBiT-Degradation A375.10 BRAF 24 hours DC50) it was less than 1000 nM; in experiment [1] (A375.10 cells, HiBiT, BRAF V600E, 24 hours, read-out: HiBiT-Degradation A375.10 BRAF 24 hours IP) it was less than 1000 nM. The Emax in experiment [1] (setting [5]) was less than 50%; in experiment [1] (A375.10 cells, HiBiT, BRAF V600E, 24 hours, read-out: HiBiT-Degradation A375.10 BRAF 24 hours Emax), less than 50%; in experiment [2] (96 h), 50 to 90%. This molecule also gave a GI50 in experiment [2] (96 h) of less than 1000 nM.

As for `CCN(C)S(=O)(=O)Nc1ccc(F)c(Oc2ccc3ncn(C4CC5(CC(N6CC[C@@H](c7cc8c(cc7F)c(N7CCC(=O)NC7=O)nn8C)C(F)(F)C6)C5)C4)c(=O)c3c2)c1C#N` (stereo partly drawn) [Compound 227, 6-[2-cyano-3-[[ethyl(methyl)sulfamoyl]amino]-6-fluoro-phenoxy]-3-[2-[(4S)-4-[3-(2,4-dioxohexahydropyrimidin-1-yl)-5-fluoro-1-methyl-indazol-6-yl]-3,3-difluoro-1-piperidyl]spiro[3.3]heptan-6-yl]-4-oxo-quinazoline], the DC50 in experiment [1] (setting [3]) and in experiment [1] (setting [4]) was less than 1000 nM in each case. Besides, the Emax was less than 50% in experiment [1] (setting [5]) and 50 to 90% in experiment [2] (96 h). This molecule also returned a GI50 in experiment [2] (96 h) of 1000 to 10000 nM.
